The text below walks through data of patent publication US20200277246A1, “TREATMENT METHOD, COMPOUNDS, AND METHOD OF INCREASING TRPV2 ACTIVITY” (THE FEINSTEIN INSTITUTE FOR MEDICAL RESEARCH, priority 2015, published 2020).

In one assay the test system is DBA1/J mice with collagen-induced arthritis. The assay can be described thus: Collagen induced arthritis (CIA). The note with it: 10 mg/Kg IP every-other-day from D10; scoring to D76. It counts as in vivo, mouse. An excerpt: CIA was induced in 8-week-old male DBA1/J mice (Jackson Laboratories) using a standard protocol (Courtenay et al., “Immunisation Against Heterologous Type II Collagen Induces Arthritis in Mice,” Nature 283 (5748):666-668 (1980); Nagler-Anderson et al., “Suppression of Type II Collagen-Induced Arthritis by Intragastric Administration of Soluble Type II Collagen,” Proc. Natl. Acad. Sci. U.S.A. 83 (19):7443-7446 (1986), which are hereby incorporated by reference in their entirety). Briefly, bovine type II collagen (Chondrex, Redmond, Wash.) was dissolved overnight in acetic acid 0.1 N and then homogenized at 1:1 with Complete Freund's Adjuvant (CFA, Difco, Detroit, Mich.). Anesthetized mice were injected intradermally with 100 μg of type II collagen emulsified in CFA in the tail. The new Trpv2 agonist LER13 (10 mg/Kg) or control vehicle (PBS 50%, PEG300 40%, PG 5%, PS80 5%) was started on day 10 (D10) and administered intra-peritoneally every-other-day (from D10 until day 55). On day 21 (D21), mice received a booster injection of 100 μg of type II collagen in incomplete Freund's adjuvant. Clinical signs of arthritis were evident on day 24 (D24).
Arthritis severity in CIA mice was scored using a modified scoring system based on Jirholt et al., “Genetic Linkage Analysis of Collagen-Induced Arthritis in the Mouse,” Eur. J. Immunol. 28 (10):3321-3328 (1998), which is hereby incorporated by reference in its entirety. Briefly, the modified scoring system ranged from 0-16 per mouse per day and included a functional component of disease severity (non-weight bearing) in the maximum score of 4 per paw. The arthritis severity index (ASI), which is the sum of all scores obtained during the observation period, was used to compare treatment groups as it provides a comprehensive assessment of arthritis severity over time, and correlates with histologic damage (Brenner et al., “The Non-MHC Quantitative Trait Locus Cia10 Contains a Major Arthritis Gene and Regulates Disease Severity, Pannus Formation and Joint Damage,” Arthritis Rheum. 52 (1):322-332 (2005); Brenner et al., “The Non-MHC Quantitative Trait Locus Cia5 Contains Three Major Arthritis Genes that Differentially Regulate Disease Severity, Pannus Formation, and Joint Damage in Collagen- and Pristane-Induced Arthritis,” J. Immunol. 174 (12):7894-7903 (2005), which are hereby incorporated by reference in their entirety).
With “(1R,2″R,2R,2″S)-6′-ethynyl-5,5″-dimethyl-2,2″-di(prop-1-en-2-yl)-1,1″,2,2″,3,3″,4,4″-octahydro-[1,1′:3′,1″-terphenyl]-2′,4′-diol [Compound 13]”, the “Arthritis severity index (ASI), mean±S.D.” value came to 40.7±36.8.

Still in this assay, the particulars now being: collagen-induced arthritis.
Consider `C=C(C)[C@@H]1CCC(C)=CC1c1c(O)cc(O)cc1F` (some centres unmarked) [Compound 10], for which the “Arthritis severity (CIA)” value was “Not protective KRN and CIA”.

As to `C=C(C)[C@@H]1CCC(C)=CC1c1c(O)cc(Cl)cc1O` (some centres unmarked) [Compound 12], the “Arthritis severity (CIA)” value is given as “Not protective in CIA”.

A further assay concerns FLS. The assay can be described thus: FLS invasion, focused library screen (Table 1). It counts as cell-based. The note with it: evaluated over 24 hours in vitro. As for the experimental part: The in vitro invasiveness of FLS was assayed in a transwell system using Matrigel-coated inserts (BD Biosciences, Franklin Lakes, N.J.), as previously described (Tolboom et al., “Invasiveness of Fibroblast-Like Synoviocytes is an Individual Patient Characteristic Associated with the Rate of Joint Destruction in Patients with Rheumatoid Arthritis,” Arthritis Rheum. 52 (7):1999-2002 (2005); Laragione et al., “The Arthritis Severity Locus Cia5d is a Novel Genetic Regulator of the Invasive Properties of Synovial Fibroblasts,” Arthritis Rheum. 58 (8):2296-2306 (2008), which are hereby incorporated by reference in their entirety). Briefly, 70-80% confluent cells were harvested by trypsin-EDTA digestion, and re-suspended at 2.0×10^4 cells in 500 μl of serum-free DMEM. Cells were placed in the upper compartment of the Matrigel-coated inserts. Where indicated, O1821, LER13, or vehicle was added to the upper chamber. The lower compartment was filled with complete media and the plates were incubated at 37° C. for 24 hours. After 24 hours the upper surface of the insert was wiped with cotton-swabs to remove non-invading cells and the Matrigel layer. The opposite side of the insert was stained with Crystal Violet (Sigma) and the total number of cells that invaded through Matrigel counted at 100× magnification. Experiments were done in duplicate.
Turning to `C=C(C)[C@@H]1CCC(C)=C[C@H]1c1c(O)cc(C)cc1O` [Compound 1], the “FLS invasion decreased by” value was “Decreased by 30%”. For the molecule `C=C(C)[C@@H]1CCC(C)=CC1c1c(O)cc(O)cc1F` (some centres unmarked) [Compound 10], the “FLS invasion decreased by” value was “Decreased by 100%”. Consider `C=C(C)[C@@H]1CCC(C)=CC1c1c(O)cc(Cl)cc1O` (some centres unmarked) [Compound 12], for which the “FLS invasion decreased by” value is recorded as “Decreased by 100%”. On the same count and under the same terms, under `C#Cc1cc(O)cc(O)c1C1C=C(C)CC[C@H]1C(=C)C` (some centres unmarked) [Compound 14] stands “Decreased by 100%”.

For the next assay, the system named is C57BL/6 mice with KRN serum transfer-induced arthritis. The assay can be described thus: KRN serum transfer induced arthritis (clinical scores and histology). It counts as in vivo, mouse. The note with it: KRN serum induced arthritis. The protocol: Seven to eight week-old C57BL/6 male mice (Jackson Laboratories) received 200 μl of KRN arthritogenic serum (Ji et al, “Genetic Influences on the End-Stage Effector Phase of Arthritis,” J. Exp. Med. 194 (3):321-330 (2001), which is hereby incorporated by reference in its entirety) (KBN TCR transgenic mice were a kind gift from Christophe Benoist and have been intercrossed with NOD at the Feinstein Institute to generate KRN mice and the arthritogenic serum) intraperitoneal (IP) on day zero (D0) and day 2 (D2). After the onset of clear ankle arthritis (day 3; D3), mice were started on O1821 10 mg/Kg IP BID or control vehicle (DMSO in saline solution). Arthritis severity was scored according to the system reported by Jirholt et al., “Genetic Linkage Analysis of Collagen-Induced Arthritis in the Mouse,” Eur. J. Immunol. 28 (10):3321-3328 (1998), which is hereby incorporated by reference in its entirety, which includes a number of involved joints and a degree of inflammation (swelling/redness) in a scale of 0-12 per mouse per day.
[…] Histology slides were scored without knowledge of treatment and according to a comprehensive scoring system previously reported that includes parameters for synovial hyperplasia, inflammatory cell infiltration, and bone and cartilage erosions (Brenner et al., “The Non-MHC Quantitative Trait Locus Cia10 Contains a Major Arthritis Gene and Regulates Disease Severity, Pannus Formation and Joint Damage,” Arthritis Rheum. 52 (1):322-332 (2005), which is hereby incorporated by reference in its entirety).
`C=C(C)[C@@H]1CCC(C)=C[C@H]1c1c(O)cc(C)cc1O` [Compound 1]: the “Arthritis severity (KRN)” value is listed as “Protective KRN”. The same measure, in the same setting: the entry for `C=C(C)[C@@H]1CCC(C)=CC1c1c(O)cc(O)cc1F` (some centres unmarked) [Compound 10] is “Not protective KRN and CIA”. The same measure, in the same setting: under `C#Cc1cc(O)cc(O)c1C1C=C(C)CC[C@H]1C(=C)C` (some centres unmarked) [Compound 14] stands “Not protective in KRN”.

A further assay has as its target T1, Trpv2 (Rattus norvegicus, UniProt Q9WUD2).
T1 sequence (Q9WUD2 1-761): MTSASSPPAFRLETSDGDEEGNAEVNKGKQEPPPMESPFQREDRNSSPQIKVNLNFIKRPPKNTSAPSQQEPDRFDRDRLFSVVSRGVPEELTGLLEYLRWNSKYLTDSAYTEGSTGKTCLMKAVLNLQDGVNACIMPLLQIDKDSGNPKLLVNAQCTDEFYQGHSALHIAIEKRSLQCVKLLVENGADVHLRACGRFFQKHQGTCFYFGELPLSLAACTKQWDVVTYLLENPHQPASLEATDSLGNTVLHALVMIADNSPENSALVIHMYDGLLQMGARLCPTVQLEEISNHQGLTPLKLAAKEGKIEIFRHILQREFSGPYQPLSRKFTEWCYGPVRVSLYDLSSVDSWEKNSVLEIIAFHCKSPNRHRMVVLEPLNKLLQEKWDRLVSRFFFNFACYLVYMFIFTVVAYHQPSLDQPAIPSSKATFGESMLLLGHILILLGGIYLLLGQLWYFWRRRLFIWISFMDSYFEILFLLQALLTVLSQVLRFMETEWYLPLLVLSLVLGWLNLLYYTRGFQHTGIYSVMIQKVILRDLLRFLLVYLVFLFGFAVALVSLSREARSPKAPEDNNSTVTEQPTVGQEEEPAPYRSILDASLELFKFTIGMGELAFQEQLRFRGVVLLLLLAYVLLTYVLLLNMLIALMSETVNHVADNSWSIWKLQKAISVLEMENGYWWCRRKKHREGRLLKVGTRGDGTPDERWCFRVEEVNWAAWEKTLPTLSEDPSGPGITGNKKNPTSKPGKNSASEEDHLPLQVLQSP
The assay can be described thus: Intracellular calcium influx (Fluo-4 NW) in DA FLS. On the set-up: endogenous in cells; host or cells: fibroblast-like synoviocytes (FLS) from DA rats. The note with it: measured over 200 seconds; compared with O1821. It counts as cell-based. The protocol:
Intracellular calcium influx was measured using the Fluo-4 NW calcium assay kit (Molecular Probes/Invitrogen) according to the manufacturer's instructions, as previously described (Laragione et al., “CXCL10 and its Receptor CXCR3 Regulate Synovial Fibroblast Invasion in Rheumatoid Arthritis,” Arthritis Rheum. 63 (11):3274-3283 (2011), which is hereby incorporated by reference in its entirety). Briefly, DA FLS were plated at a density of 4,500 cells/well in a 96-well plate (100 μl volume of complete media per well). After cell adhesion the media was changed to serum-free media for overnight culture. Serum-free media was then replaced with 50 μl of dye loading solution, followed by incubation at 37° C. for 30 minutes and a baseline fluorimetric reading. Then, O1821, LER13, or vehicle were added to their respective wells at different concentrations and fluorescence read immediately in a Fluoroskan Ascent Microplate Fluorometer (Thermo Scientific) with settings appropriate for excitation at 494 nm and emission at 516 nm.
For orientation: Calcium assays in cells follow changes in intracellular calcium, usually with a dye or a luminescent sensor.
Turning to `C=C(C)[C@@H]1CCC(C)=C[C@H]1c1c(O)cc(C)cc1O` [Compound 1], the Calcium influx result is on record as “increased”. Same read-out and setting: under `C=C(C)[C@@H]1CCC(C)=C[C@H]1c1c(C)cc(O)cc1O` [Compound 2] stands “increased (like DMSO, but less than O1821)”; under `C=C(C)[C@H]1CCC(C)=CC1c1c(O)c(C2C=C(C)CC[C@H]2C(=C)C)c(O)c([C@@H]2C=C(C)CC[C@H]2C(=C)C)c1O` (some centres unmarked) [Compound 3], “increased (20% greater than O1821)”.

For the molecule `C=C(C)[C@H]1CCC(C)=CC1c1c(O)cc(O)c([C@@H]2C=C(C)CC[C@H]2C(=C)C)c1O` (some centres unmarked) [Compound 4], the Calcium influx result is on record as “increased (25% less than O1821)”. Same read-out and setting: the entry for `C=C(C)[C@@H]1CCC(C)=C[C@H]1c1c(O)cc(O)cc1O` [Compound 5] is “increased (25% less than O1821)”; for `C=C(C)[C@H]1CCC(C)=CC1c1c(/C=C/c2ccc(O)cc2)cc(O)c([C@@H]2C=C(C)CC[C@H]2C(=C)C)c1O` (some centres unmarked) [Compound 6] it is “increased (similar to O1821)”; for `C=C(C)[C@@H]1CCC(C)=C[C@H]1c1c(O)cc(/C=C/c2ccc(O)cc2)cc1O` [Compound 7] it is “increased (50% less than O1821)”. Take `C=C(C)[C@H]1CCC(C)=CC1c1c(O)cc(O)cc1/C=C/c1ccc(O)cc1` (some centres unmarked) [Compound 8]: the Calcium influx entry is “increased (10% less than O1821)”. Same read-out and setting: under `C=C(C)[C@@H]1CCC(C)=CC1c1c(O)cc(F)cc1O` (some centres unmarked) [Compound 9] stands “increased (similar to O1821)”. The same measure, in the same setting: the entry for `C=C(C)[C@@H]1CCC(C)=CC1c1c(O)cc(O)cc1F` (some centres unmarked) [Compound 10] is “increased (20% greater than O1821)”. Same read-out and setting: the entry for `C=C(C)[C@@H]1CCC(C)=CC1c1c(O)cc(O)cc1Cl` (some centres unmarked) [Compound 11] is “increased (20% greater than O1821)”. In the case of `C=C(C)[C@@H]1CCC(C)=CC1c1c(O)cc(Cl)cc1O` (some centres unmarked) [Compound 12], the Calcium influx entry was “increased (20% greater than O1821)”. Still for that read-out and setting: under `C#Cc1cc(O)cc(O)c1C1C=C(C)CC[C@H]1C(=C)C` (some centres unmarked) [Compound 14] stands “increased (20% greater than O1821)”.
